Measured values from PubChem BioAssay AID328 (DTP/NCI, 2004).
“And” between values parts separate entries of the source, which are not always exact repeats. Identical values can stand only once. Inconclusive results and toxic doses are left out. Non-standard residues stand in square brackets, D forms with d. Residues, ends and D or L forms follow the SMILES beside them. ξ: configuration not given here. *: point of attachment. ξF = NC(Cc1ccccc1)C(=O)O; ClAc = O=C(CCl)*

System: BDF1 mice, P388 leukemia ip, median survival T/C
Assay: NCI In Vivo Anticancer Drug Screen. Data for tumor model P388 Leukemia (intraperitoneal) in B6D2F1 (BDF1) mice
Details: endpoint: median survival time, higher = longer survival
Summary of the method: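 Transplantable tumour in mice; compound vs vehicle dosing; survival scored; ratio of treated to control reported.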

[1] = dose: 100.0 mg/kg/injection, schedule: Q01DX009 (ip), vehicle: saline
[2] = dose: 200.0 mg/kg/injection, schedule: Q01DX009 (ip), vehicle: saline
[3] = dose: 50.0 mg/kg/injection, schedule: Q01DX009 (ip), vehicle: saline with Tween-80
[4] = dose: 100.0 mg/kg/injection, schedule: Q01DX009 (ip), vehicle: saline with Tween-80
[5] = dose: 200.0 mg/kg/injection, schedule: Q01DX009 (ip), vehicle: saline with Tween-80
[6] = dose: 50.0 mg/kg/injection, schedule: Q04DX003 (ip), vehicle: saline with Tween-80
[7] = dose: 100.0 mg/kg/injection, schedule: Q04DX003 (ip), vehicle: saline with Tween-80
[8] = dose: 200.0 mg/kg/injection, schedule: Q04DX003 (ip), vehicle: saline with Tween-80
[9] = dose: 50.0 mg/kg/injection, schedule: Q01DX009 (ip), vehicle: saline

With O=S(=O)(O)c1ccc(O)cc1 the T/C [1] was 92 % of control, the T/C (dose: 100.0 mg/kg/injection, schedule: Q04DX003 (ip), vehicle: saline) was 105 % of control and the T/C [2] was 88 % of control. The T/C (dose: 200.0 mg/kg/injection, schedule: Q04DX003 (ip), vehicle: saline) was 115 % of control and the T/C (dose: 400.0 mg/kg/injection, schedule: Q04DX003 (ip), vehicle: saline) was 110 % of control.

O=C1/C(=C/c2ccc(Cl)cc2)SC(=S)N1CCCN1CCOCC1 was tested, and the T/C [3] was 91 % of control, the T/C [4] was 88 % of control and the T/C [5] was 91 % of control.

For CCOC(=O)C(OCc1ccccc1)(C(=O)NCCc1ccc(OC)c(OC)c1)C(C)C (centres undefined), the T/C (dose: 25.0 mg/kg/injection, schedule: Q04DX003 (ip), vehicle: other) was 100 % of control, the T/C (dose: 50.0 mg/kg/injection, schedule: Q04DX003 (ip), vehicle: other) was 108 % of control and the T/C (dose: 100.0 mg/kg/injection, schedule: Q04DX003 (ip), vehicle: other) was 93 % of control.

For CC(C)(C)[O][Pb]([c]1ccccc1)([c]1ccccc1)[c]1ccccc1, the T/C (dose: 0.39 mg/kg/injection, schedule: Q01DX009 (ip), vehicle: saline) was 100 % of control, the T/C (dose: 0.85 mg/kg/injection, schedule: Q04DX003 (ip), vehicle: saline) was 105 % of control and the T/C (dose: 1.02 mg/kg/injection, schedule: Q01DX009 (ip), vehicle: saline) was 104 % of control and 115 % of control. For the same compound, the T/C (dose: 1.7 mg/kg/injection, schedule: Q04DX003 (ip), vehicle: saline) was 110 % of control, the T/C (dose: 2.34 mg/kg/injection, schedule: Q01DX009 (ip), vehicle: saline) was 113 % of control and 120 % of control and the T/C (dose: 3.4 mg/kg/injection, schedule: Q01DX009 (ip), vehicle: saline) was 90 % of control. The T/C (dose: 3.4 mg/kg/injection, schedule: Q04DX003 (ip), vehicle: saline) was 90 % of control, the T/C (dose: 5.0 mg/kg/injection, schedule: Q04DX003 (ip), vehicle: saline) was 104 % of control and the T/C (dose: 5.75 mg/kg/injection, schedule: Q01DX001 (ip), vehicle: Klucel (hydroxypropylcellulose) (HPC)) was 88 % of control. For the same compound, the T/C (dose: 7.7 mg/kg/injection, schedule: Q04DX003 (ip), vehicle: saline) was 86 % of control.

In the case of NC(=O)NC1OC(COC(=O)c2ccccc2)C(OC(=O)c2ccccc2)C1OC(=O)c1ccccc1 (centres undefined), the T/C [6] is reported as 107 % of control, the T/C [7] is reported as 90 % of control and 96 % of control and the T/C [8] is reported as 93 % of control. The T/C (dose: 400.0 mg/kg/injection, schedule: Q04DX003 (ip), vehicle: saline with Tween-80) was 87 % of control and 90 % of control.

For Cc1csc(NC(O)C(Cl)(Cl)Cl)n1 (centres undefined), the T/C [3] was 98 % of control, the T/C [4] was 106 % of control and the T/C [5] was 101 % of control.

In the case of COc1ccc2c(ccc[n+]2C)c1, the T/C (dose: 7.2 mg/kg/injection, schedule: Q01DX009 (ip), vehicle: saline) is reported as 104 % of control, the T/C (dose: 9.37 mg/kg/injection, schedule: Q04DX003 (ip), vehicle: saline) is reported as 91 % of control and the T/C (dose: 10.0 mg/kg/injection, schedule: Q01DX009 (ip), vehicle: saline) is reported as 104 % of control. For the same compound, the T/C (dose: 18.75 mg/kg/injection, schedule: Q04DX003 (ip), vehicle: saline) was 91 % of control, the T/C (dose: 35.0 mg/kg/injection, schedule: Q04DX003 (ip), vehicle: saline) was 122 % of control and the T/C (dose: 36.7 mg/kg/injection, schedule: Q04DX003 (ip), vehicle: saline) was 110 % of control. The T/C (dose: 37.5 mg/kg/injection, schedule: Q01DX009 (ip), vehicle: saline) was 150 % of control and 155 % of control, the T/C (dose: 37.5 mg/kg/injection, schedule: Q04DX003 (ip), vehicle: saline) was 104 % of control and the T/C (dose: 55.0 mg/kg/injection, schedule: Q04DX003 (ip), vehicle: saline) was 154 % of control.

For CCCCCCOP(=O)(N1CC1C)N1CC1C (centres undefined), the T/C [9] was 122 % of control, the T/C [1] was 150 % of control and 182 % of control and the T/C [2] was 86 % of control.

In the case of OC1CC2CC1C(Cl)C2Cl (centres undefined), the T/C [3] is reported as 113 % of control, the T/C [4] is reported as 96 % of control and the T/C [5] is reported as 98 % of control.

O=NN(CCCl)C(=O)Nc1ccc(CCCl)cc1 was tested, and the T/C (dose: 37.5 mg/kg/injection, schedule: Q01DX009 (ip), vehicle: other) was 90 % of control, the T/C (dose: 37.5 mg/kg/injection, schedule: Q04DX003 (ip), vehicle: other) was 120 % of control and the T/C (dose: 66.0 mg/kg/injection, schedule: Q04DX003 (ip), vehicle: other) was 90 % of control. The T/C (dose: 75.0 mg/kg/injection, schedule: Q01DX009 (ip), vehicle: other) was 100 % of control, the T/C (dose: 75.0 mg/kg/injection, schedule: Q04DX003 (ip), vehicle: other) was 120 % of control and the T/C (dose: 99.0 mg/kg/injection, schedule: Q04DX003 (ip), vehicle: other) was 95 % of control. The T/C (dose: 150.0 mg/kg/injection, schedule: Q01DX009 (ip), vehicle: other) was 105 % of control, the T/C (dose: 150.0 mg/kg/injection, schedule: Q04DX003 (ip), vehicle: other) was 255 % of control and 95 % of control and the T/C (dose: 225.0 mg/kg/injection, schedule: Q04DX003 (ip), vehicle: other) was 100 % of control.

For O=C(Oc1ccccc1)c1cc(O)c(O)c(O)c1, the T/C (dose: 50.0 mg/kg/injection, schedule: Q01DX005 (ip), vehicle: saline with Tween-80) was 100 % of control and 106 % of control, the T/C (dose: 100.0 mg/kg/injection, schedule: Q01DX005 (ip), vehicle: saline with Tween-80) was 107 % of control and 115 % of control and the T/C (dose: 200.0 mg/kg/injection, schedule: Q01DX005 (ip), vehicle: saline with Tween-80) was 105 % of control. The T/C (dose: 400.0 mg/kg/injection, schedule: Q01DX005 (ip), vehicle: saline with Tween-80) was 154 % of control.

In the case of CCN(CC)S(=O)(=O)c1ccc(C(=O)O)cc1, the T/C (dose: 100.0 mg/kg/injection, schedule: Q04DX003 (ip), vehicle: Klucel (hydroxypropylcellulose) (HPC)) is reported as 100 % of control, the T/C (dose: 200.0 mg/kg/injection, schedule: Q04DX003 (ip), vehicle: Klucel (hydroxypropylcellulose) (HPC)) is reported as 104 % of control and the T/C (dose: 400.0 mg/kg/injection, schedule: Q04DX003 (ip), vehicle: Klucel (hydroxypropylcellulose) (HPC)) is reported as 100 % of control.

In the case of CN(C)[C@@H]1C(=O)C(C(N)=O)=C(O)[C@@]2(O)C(=O)C3=C(O)c4c(O)ccc(Cl)c4[C@@](C)(O)[C@H]3C[C@@H]12, the T/C (dose: 132.0 mg/kg/injection, schedule: Q01DX009 (ip), vehicle: saline) is reported as 122 % of control and the T/C [2] is reported as 122 % of control.

With Clc1c(Cl)c2c(Cl)c(Cl)c1C[P+](c1ccccc1)(c1ccccc1)CC[P+](c1ccccc1)(c1ccccc1)Cc1c(Cl)c(Cl)c(c(Cl)c1Cl)C[P+](c1ccccc1)(c1ccccc1)CC[P+](c1ccccc1)(c1ccccc1)C2 the T/C (dose: 1.56 mg/kg/injection, schedule: Q01DX009 (ip), vehicle: water) was 92 % of control, the T/C (dose: 3.13 mg/kg/injection, schedule: Q01DX009 (ip), vehicle: water) was 113 % of control and the T/C (dose: 6.25 mg/kg/injection, schedule: Q01DX009 (ip), vehicle: water) was 106 % of control.

COc1cccc2c1C(=O)c1c(O)c3c(c(O)c1C2=O)C[C@@](O)(C(=O)CO)C[C@@H]3OC1CC(NC(=S)Nc2ccc(F)cc2)C(O)C(C)O1 (some centres undefined) was tested, and the T/C (dose: 6.25 mg/kg/injection, schedule: Q01DX009 (ip), vehicle: saline) was 90 % of control, the T/C (dose: 25.0 mg/kg/injection, schedule: Q01DX009 (ip), vehicle: saline) was 150 % of control and the T/C [9] was 106 % of control. For the same compound, the T/C [1] was 122 % of control.

With Cc1cc(Br)c2ccccc2c1N(CC(=O)O)S(=O)(=O)c1ccccc1 the T/C (dose: 100.0 mg/kg/injection, schedule: Q01DX001 (ip), vehicle: saline with Tween-80) was 100 % of control, the T/C (dose: 200.0 mg/kg/injection, schedule: Q01DX001 (ip), vehicle: saline with Tween-80) was 109 % of control and the T/C (dose: 400.0 mg/kg/injection, schedule: Q01DX001 (ip), vehicle: saline with Tween-80) was 109 % of control.

In the case of O=C(CCl)NCC(=O)NC(Cc1ccccc1)C(=O)O (centres undefined) (ClAc-Gly-[ξF]-OH), the T/C [6] is reported as 109 % of control, the T/C [7] is reported as 109 % of control and the T/C [8] is reported as 90 % of control.
